From ChEMBL document CHEMBL3259585, “Molecular basis of the selective binding of MDMA enantiomers to the alpha4beta2 nicotinic receptor subtype: synthesis, pharmacological evaluation and mechanistic studies” (Eur J Med Chem, 2014)
The source made the active and inactive calls. The rule behind the calls is not given here.

Assays:
[1] = target: T1, Neuronal acetylcholine receptor; alpha4/beta2 (Rattus norvegicus) (UniProt P09483+P12390); test: Stimulation of [3H]epibatidine binding to alpha4beta2 nAChR in rat PC12 cells at 100 uM preincubated for 24 hrs followed by radioligand addition measured after 90 mins by liquid scintillation spectrometric analysis; format: cell-based; details: PC-12
[2] = target: T1, Neuronal acetylcholine receptor; alpha4/beta2 (Rattus norvegicus); test: (§1) Displacement of [3H]epibatidine from alpha4beta2 nAChR in Sprague-Dawley rat brain cortical membrane after 3 hrs by liquid scintillation spectrometric analysis; format: tissue-based
[3] = target: T2, Neuronal acetylcholine receptor; alpha4/beta2 (Rattus norvegicus, UniProt P09483+P12390); test: as §1; format: tissue-based
[4] = target: T2, Neuronal acetylcholine receptor; alpha4/beta2; test: Displacement of [3H]epibatidine from alpha4beta2 nAChR in Sprague-Dawley rat brain cortical membrane after 3 hrs; format: tissue-based
[5] = tested on: Rattus norvegicus; test: In vivo stimulation of [3H]epibatidine binding to nicotinic acetylcholine receptor in rat prefrontal cortex relative to control; format: functional
[6] = target: Sodium-dependent serotonin transporter (Rattus norvegicus, UniProt P31652); test: Displacement of [3H]-citalopram from SERT in Sprague-Dawley rat cortex, striatum and cerebellum-dissected brain after 60 mins by scintillation counting analysis; format: tissue-based
Chain of Sodium-dependent serotonin transporter (P31652 whole entry): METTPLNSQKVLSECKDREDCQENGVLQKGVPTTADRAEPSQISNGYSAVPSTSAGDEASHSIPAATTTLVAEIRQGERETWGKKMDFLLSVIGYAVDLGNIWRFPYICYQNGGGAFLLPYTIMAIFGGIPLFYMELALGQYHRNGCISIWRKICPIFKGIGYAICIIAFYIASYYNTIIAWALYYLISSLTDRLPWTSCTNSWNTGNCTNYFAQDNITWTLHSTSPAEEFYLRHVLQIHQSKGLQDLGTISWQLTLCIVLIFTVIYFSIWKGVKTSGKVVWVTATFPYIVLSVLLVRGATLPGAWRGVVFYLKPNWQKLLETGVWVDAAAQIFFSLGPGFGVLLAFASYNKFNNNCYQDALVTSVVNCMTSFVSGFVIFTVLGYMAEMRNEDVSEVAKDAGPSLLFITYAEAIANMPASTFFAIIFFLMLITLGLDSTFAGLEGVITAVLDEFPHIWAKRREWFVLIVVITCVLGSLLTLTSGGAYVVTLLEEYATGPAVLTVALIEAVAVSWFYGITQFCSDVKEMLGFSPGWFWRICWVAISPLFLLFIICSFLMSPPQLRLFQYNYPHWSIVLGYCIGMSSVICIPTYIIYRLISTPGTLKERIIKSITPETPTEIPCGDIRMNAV

T2 sequence (P09483 whole entry): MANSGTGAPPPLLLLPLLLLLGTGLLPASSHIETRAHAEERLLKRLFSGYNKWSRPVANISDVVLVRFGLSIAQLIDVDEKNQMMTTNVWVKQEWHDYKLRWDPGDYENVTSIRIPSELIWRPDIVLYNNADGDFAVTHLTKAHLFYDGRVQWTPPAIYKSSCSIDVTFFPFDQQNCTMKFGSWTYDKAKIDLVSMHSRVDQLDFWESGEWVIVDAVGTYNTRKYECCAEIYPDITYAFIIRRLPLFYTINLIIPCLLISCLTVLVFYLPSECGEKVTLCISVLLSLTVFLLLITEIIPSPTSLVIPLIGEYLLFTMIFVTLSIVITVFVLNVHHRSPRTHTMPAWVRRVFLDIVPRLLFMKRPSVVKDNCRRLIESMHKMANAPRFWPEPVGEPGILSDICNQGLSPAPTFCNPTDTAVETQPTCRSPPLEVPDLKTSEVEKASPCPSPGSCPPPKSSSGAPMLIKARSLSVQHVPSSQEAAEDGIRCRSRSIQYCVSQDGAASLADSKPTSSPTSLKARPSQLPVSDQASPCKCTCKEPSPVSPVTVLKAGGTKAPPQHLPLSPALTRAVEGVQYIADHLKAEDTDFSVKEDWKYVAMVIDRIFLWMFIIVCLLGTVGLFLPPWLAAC
T2 sequence (P12390 whole entry): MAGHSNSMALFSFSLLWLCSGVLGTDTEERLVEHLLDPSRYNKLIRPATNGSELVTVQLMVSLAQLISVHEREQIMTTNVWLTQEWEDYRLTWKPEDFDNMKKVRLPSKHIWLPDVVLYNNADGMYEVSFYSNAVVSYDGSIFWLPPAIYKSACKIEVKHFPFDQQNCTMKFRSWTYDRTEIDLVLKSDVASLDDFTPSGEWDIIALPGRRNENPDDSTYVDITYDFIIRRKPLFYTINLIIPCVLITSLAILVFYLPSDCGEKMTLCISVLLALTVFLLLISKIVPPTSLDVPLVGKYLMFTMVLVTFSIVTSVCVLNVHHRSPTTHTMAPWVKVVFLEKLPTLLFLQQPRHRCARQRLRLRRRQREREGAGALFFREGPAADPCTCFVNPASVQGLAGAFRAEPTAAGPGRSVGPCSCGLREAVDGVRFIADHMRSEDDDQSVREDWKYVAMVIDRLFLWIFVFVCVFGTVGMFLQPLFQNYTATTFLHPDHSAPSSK

Compound: CN[C@@H](C)Cc1ccc2c(c1)OCO2
- Activity [1]: inactive
- inhibition [2]: Dose-dependent effect
- IC50 [3]: 173 µM
- Ki [4]: 8.21 µM

Compound: CN1CCC[C@H]1c1cccnc1 [NICOTINE]
- Activity [5]: 30%

Compound: CNC(C)Cc1ccc2c(c1)OCO2 (racemic) [MIDOMAFETAMINE]
- Activity [1]: Active
- inhibition [2]: Dose-dependent effect
- IC50 [3]: 30.4 µM
- Ki [4]: 1.44 µM
- Activity [5]: 35%

Compound: CN[C@H](C)Cc1ccc2c(c1)OCO2
- Activity [1]: Active
- inhibition [2]: Dose-dependent effect
- IC50 [3]: 13.4 µM
- Ki [4]: 0.63 µM
- Ki [6]: 24.5 µM
